Test results as given in BindingDB's records for doi:10.1016/j.bmcl.2005.12.017 (Abbott Laboratories, 2006).
pIC50: −log10 of the molar value.

Each compound was assayed against T1, RAC-alpha serine/threonine-protein kinase [139-480,S378A,S381A,T450D,S473D] (Homo sapiens, UniProt P31749, S378A/S381A/S473D/T450D) (assay: Akt Kinase Assay). Conditions: not given.
T1 construct: 139-480
Description: The kinase assay uses His-Akt1 and a biotinylated peptide as substrate. The biotinylated peptides were immobilized on streptavidin-coated FLASH plates. After reaction, the 33P-phosphopeptide captured on the FLASH plates was measured with a TopCount Packard Instruments […] (Packard Instruments, Boston, MA).

T1 sequence (P31749 139-480 S378A/S381A/T450D/S473D): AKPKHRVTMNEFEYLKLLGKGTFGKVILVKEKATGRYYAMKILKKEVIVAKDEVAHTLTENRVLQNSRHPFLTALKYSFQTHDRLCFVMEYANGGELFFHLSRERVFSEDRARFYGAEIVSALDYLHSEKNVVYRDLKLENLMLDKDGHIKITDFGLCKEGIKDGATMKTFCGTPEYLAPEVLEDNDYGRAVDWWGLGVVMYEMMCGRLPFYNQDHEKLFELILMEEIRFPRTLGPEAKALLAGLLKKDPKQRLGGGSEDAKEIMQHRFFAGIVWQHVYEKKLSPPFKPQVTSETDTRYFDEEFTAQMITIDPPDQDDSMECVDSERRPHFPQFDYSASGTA

Compound	pIC50
N[C@H](COc1cncc(/C=C/c2ccnc(-n3ccc4ccccc43)c2)c1)Cc1c[nH]c2ccccc12 [1-{4-[(E)-2-{5-[(2S)-2-amino-3-(1H-indol-3-yl)propoxy]pyridin-3-yl}ethenyl]pyridin-2-yl}-1H-indole]	5.48
N[C@H](COc1ccc(/C=C/c2ccncc2)cn1)Cc1ccccc1 [2-[(2S)-2-amino-3-phenylpropoxy]-5-[(E)-2-(pyridin-4-yl)ethenyl]pyridine]	4.37
NCC(c1ccccc1)c1cncc(/C=C/c2ccncc2)c1 (configuration not stated) [2-phenyl-2-{5-[(E)-2-(pyridin-4-yl)ethenyl]pyridin-3-yl}ethan-1-amine]	6.55
N[C@H](COc1cncc(/C=C/c2ccncc2)c1)Cc1csc2ccccc12 [3-[(2S)-2-amino-3-(1-benzothiophen-3-yl)propoxy]-5-[(E)-2-(pyridin-4-yl)ethenyl]pyridine]	6.85
COc1cc(/C=C/c2cncc(OC[C@@H](N)Cc3c[nH]c4ccccc34)c2)ccn1 [3-[(2S)-2-amino-3-({5-[(E)-2-(2-methoxypyridin-4-yl)ethenyl]pyridin-3-yl}oxy)propyl]-1H-indole]	5.57
N[C@H](COc1cncc(/C=C/c2ccnc(Oc3ccccc3)c2)c1)Cc1c[nH]c2ccccc12 [3-[(2S)-2-amino-3-({5-[(E)-2-(2-phenoxypyridin-4-yl)ethenyl]pyridin-3-yl}oxy)propyl]-1H-indole]	5.19
Cn1cc(C[C@H](N)COc2cncc(/C=C/c3ccncc3)c2)c2ccccc21 [3-[(2S)-2-amino-3-({5-[(E)-2-(pyridin-4-yl)ethenyl]pyridin-3-yl}oxy)propyl]-1-methyl-1H-indole]	6.30
N[C@H](COc1cncc(/C=C/c2ccnc(SCc3ccccc3)c2)c1)Cc1c[nH]c2ccccc12 [3-[(2S)-2-amino-3-({5-[(E)-2-[2-(benzylsulfanyl)pyridin-4-yl]ethenyl]pyridin-3-yl}oxy)propyl]-1H-indole]	5.51
N[C@H](COc1cncc(/C=C/c2ccnc(Sc3ccccc3)c2)c1)Cc1c[nH]c2ccccc12 [3-[(2S)-2-amino-3-({5-[(E)-2-[2-(phenylsulfanyl)pyridin-4-yl]ethenyl]pyridin-3-yl}oxy)propyl]-1H-indole]	5.20
N[C@H](COc1cccc(/C=C/c2ccncc2)n1)Cc1c[nH]c2ccccc12 [3-[(2S)-2-amino-3-({6-[(E)-2-(pyridin-4-yl)ethenyl]pyridin-2-yl}oxy)propyl]-1H-indole]	4.63
N[C@H](COc1cnc(Cl)c(/C=C/c2ccncc2)c1)Cc1c[nH]c2ccccc12 [3-[(2S)-2-amino-3-({6-chloro-5-[(E)-2-(pyridin-4-yl)ethenyl]pyridin-3-yl}oxy)propyl]-1H-indole]	7.64
N[C@H](COc1cncc(/C=C/c2ccnc(NCc3ccccc3)c2)c1)Cc1c[nH]c2ccccc12 [4-[(E)-2-{5-[(2S)-2-amino-3-(1H-indol-3-yl)propoxy]pyridin-3-yl}ethenyl]-N-benzylpyridin-2-amine]	6.83
N[C@H](COc1cncc(/C=C/c2ccnc(NC3CC3)c2)c1)Cc1c[nH]c2ccccc12 [4-[(E)-2-{5-[(2S)-2-amino-3-(1H-indol-3-yl)propoxy]pyridin-3-yl}ethenyl]-N-cyclopropylpyridin-2-amine]	7.16
CCNc1cc(/C=C/c2cncc(OC[C@@H](N)Cc3c[nH]c4ccccc34)c2)ccn1 [4-[(E)-2-{5-[(2S)-2-amino-3-(1H-indol-3-yl)propoxy]pyridin-3-yl}ethenyl]-N-ethylpyridin-2-amine]	6.79
CNc1cc(/C=C/c2cncc(OC[C@@H](N)Cc3c[nH]c4ccccc34)c2)ccn1 [4-[(E)-2-{5-[(2S)-2-amino-3-(1H-indol-3-yl)propoxy]pyridin-3-yl}ethenyl]-N-methylpyridin-2-amine]	6.75
Nc1cc(/C=C/c2cncc(OC[C@@H](N)Cc3c[nH]c4ccccc34)c2)ccn1 [4-[(E)-2-{5-[(2S)-2-amino-3-(1H-indol-3-yl)propoxy]pyridin-3-yl}ethenyl]pyridin-2-amine]	6.92
N[C@H](CCc1cnc(Cl)c(/C=C/c2ccncc2)c1)Cc1c[nH]c2ccccc12 [(2R)-4-{6-chloro-5-[(E)-2-(pyridin-4-yl)ethenyl]pyridin-3-yl}-1-(1H-indol-3-yl)butan-2-amine]	6.70
N[C@@H](Cc1ccccc1)C(=O)Nc1cncc(/C=C/c2ccncc2)c1 [(2S)-2-amino-3-phenyl-N-{5-[(E)-2-(pyridin-4-yl)ethenyl]pyridin-3-yl}propanamide]	5.49
N[C@H](CNc1cncc(/C=C/c2ccncc2)c1)Cc1c[nH]c2ccccc12 [N-[(2S)-2-amino-3-(1H-indol-3-yl)propyl]-5-[(E)-2-(pyridin-4-yl)ethenyl]pyridin-3-amine]	8.01
N[C@H](CNc1cnc(Cl)c(/C=C/c2ccncc2)c1)Cc1c[nH]c2ccccc12 [N-[(2S)-2-amino-3-(1H-indol-3-yl)propyl]-6-chloro-5-[(E)-2-(pyridin-4-yl)ethenyl]pyridin-3-amine]	7.72
N[C@H](CNc1cnc(Cl)c(/C=C/c2ccncc2)c1)CC1CNc2ccccc21 (stereo partly drawn) [N-[(2S)-2-amino-3-(2,3-dihydro-1H-indol-3-yl)propyl]-6-chloro-5-[(E)-2-(pyridin-4-yl)ethenyl]pyridin-3-amine]	7.10
Brc1ccc(/C=C/CNCCOc2cncc(/C=C/c3ccncc3)c2)cc1 [[(2E)-3-(4-bromophenyl)prop-2-en-1-yl][2-({5-[(E)-2-(pyridin-4-yl)ethenyl]pyridin-3-yl}oxy)ethyl]amine]	4.49
CN(C)[C@H](COc1cncc(/C=C/c2ccncc2)c1)Cc1c[nH]c2ccccc12 [[(2S)-1-(1H-indol-3-yl)-3-({5-[(E)-2-(pyridin-4-yl)ethenyl]pyridin-3-yl}oxy)propan-2-yl]dimethylamine]	5.96

Same assay, conditions: pH 7.5; 22 °C

pIC50	Compound
5.17	N[C@H](COc1cncc(/C=C/c2ccncc2)c1)C(c1ccccc1)c1ccccc1 [3-[(2S)-2-amino-3,3-diphenylpropoxy]-5-[(E)-2-(pyridin-4-yl)ethenyl]pyridine]
6.49	N[C@H](COc1cncc(/C=C/c2ccncc2)c1)Cc1cccc2ccccc12 [3-[(2S)-2-amino-3-(naphthalen-1-yl)propoxy]-5-[(E)-2-(pyridin-4-yl)ethenyl]pyridine]
6.84	N[C@H](COc1cncc(/C=C/c2ccncc2)c1)Cc1ccc2ccccc2c1 [3-[(2S)-2-amino-3-(naphthalen-2-yl)propoxy]-5-[(E)-2-(pyridin-4-yl)ethenyl]pyridine]
6.49	N#Cc1cccc(C[C@H](N)COc2cncc(/C=C/c3ccncc3)c2)c1 [3-[(2S)-2-amino-3-({5-[(E)-2-(pyridin-4-yl)ethenyl]pyridin-3-yl}oxy)propyl]benzonitrile]
6.06	N[C@H](COc1cncc(/C=C/c2ccncc2)c1)Cc1cccc(O)c1 [3-[(2S)-2-amino-3-({5-[(E)-2-(pyridin-4-yl)ethenyl]pyridin-3-yl}oxy)propyl]phenol]

Compound	pIC50
CC(C)[C@H](N)COc1cncc(/C=C/c2ccncc2)c1 [3-[(2S)-2-amino-3-methylbutoxy]-5-[(E)-2-(pyridin-4-yl)ethenyl]pyridine]	4.71
N[C@@H](CCc1ccccc1)COc1cncc(/C=C/c2ccncc2)c1 [3-[(2S)-2-amino-4-phenylbutoxy]-5-[(E)-2-(pyridin-4-yl)ethenyl]pyridine]	5.10
C(=C\c1cncc(OC[C@@H]2CCN2)c1)/c1ccncc1 [3-[(2S)-azetidin-2-ylmethoxy]-5-[(E)-2-(pyridin-4-yl)ethenyl]pyridine]	4.96
C(=C\c1cncc(OC[C@@H]2CCCN2)c1)/c1ccncc1 [3-[(E)-2-(pyridin-4-yl)ethenyl]-5-[(2S)-pyrrolidin-2-ylmethoxy]pyridine]	4.62
